Experimental data reported in publication PMC8343220, “The selectivity of α‐adrenoceptor agonists for the human α1A, α1B, and α1D‐adrenoceptors” (Pharmacology Research & Perspectives, 2021).
Like-named read-outs stand apart in the source and are kept apart here. Marks after values point to notes of the source that are not given here.

What was measured:
human α1B‐adrenoceptor [1] = molecular target: T1, human α1B‐adrenoceptor (Homo sapiens, UniProt P35368); test: ERK1/2‐phosphorylation (Surefire Alphascreen), CHO‐α1B cells; format: cell-based
T1 construct: expressed in transfected cells; host or cells: CHO-K1
T1 sequence (P35368 1-520): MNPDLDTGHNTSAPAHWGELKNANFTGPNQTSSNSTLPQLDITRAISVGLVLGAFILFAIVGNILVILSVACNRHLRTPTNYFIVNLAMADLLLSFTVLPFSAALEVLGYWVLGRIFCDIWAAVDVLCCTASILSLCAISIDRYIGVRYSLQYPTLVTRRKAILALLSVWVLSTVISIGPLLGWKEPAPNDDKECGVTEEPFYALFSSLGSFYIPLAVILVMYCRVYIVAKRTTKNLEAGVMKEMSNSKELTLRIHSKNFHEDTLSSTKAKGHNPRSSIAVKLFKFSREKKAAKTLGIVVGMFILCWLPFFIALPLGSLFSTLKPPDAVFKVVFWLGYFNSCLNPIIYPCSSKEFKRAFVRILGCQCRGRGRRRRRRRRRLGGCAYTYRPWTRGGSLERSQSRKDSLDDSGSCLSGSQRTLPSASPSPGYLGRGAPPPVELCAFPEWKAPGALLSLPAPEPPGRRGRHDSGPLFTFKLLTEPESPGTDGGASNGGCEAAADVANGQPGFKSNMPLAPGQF

[2] = molecular target: T2, human α1D‐adrenoceptor (full length) (Homo sapiens, UniProt P25100); test: ERK1/2‐phosphorylation (Surefire Alphascreen), CHO‐α1D cells; format: cell-based
T2 construct: human α1D‐adrenoceptor (full length) were used; expressed in transfected cells; host or cells: CHO-K1
T2 sequence (P25100 1-572): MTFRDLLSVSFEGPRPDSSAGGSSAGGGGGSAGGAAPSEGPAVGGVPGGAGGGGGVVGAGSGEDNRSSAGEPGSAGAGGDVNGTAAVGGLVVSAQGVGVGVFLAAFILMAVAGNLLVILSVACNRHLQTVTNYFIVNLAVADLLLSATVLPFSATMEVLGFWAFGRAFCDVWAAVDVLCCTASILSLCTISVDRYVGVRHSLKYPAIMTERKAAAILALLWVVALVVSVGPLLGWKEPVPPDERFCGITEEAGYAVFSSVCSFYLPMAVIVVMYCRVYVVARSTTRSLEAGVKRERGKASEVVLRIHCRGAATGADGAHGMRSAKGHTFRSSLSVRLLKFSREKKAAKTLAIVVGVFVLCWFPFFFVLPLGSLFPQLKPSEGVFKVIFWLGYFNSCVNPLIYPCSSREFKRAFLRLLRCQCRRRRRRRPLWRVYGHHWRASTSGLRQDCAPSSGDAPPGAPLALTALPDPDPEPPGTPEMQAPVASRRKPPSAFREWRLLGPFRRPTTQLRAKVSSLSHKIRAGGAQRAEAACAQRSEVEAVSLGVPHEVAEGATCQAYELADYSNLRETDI

human α1A‐adrenoceptor [3] = molecular target: T3, human α1A‐adrenoceptor (Homo sapiens, UniProt P35348); test: ^3H‐cAMP accumulation, CHO‐α1A cells; format: cell-based; conditions: CHO‐α1A cells; % of 10 µM forskolin response
T3 construct: expressed in transfected cells; host or cells: CHO-K1
T3 sequence (P35348 1-466): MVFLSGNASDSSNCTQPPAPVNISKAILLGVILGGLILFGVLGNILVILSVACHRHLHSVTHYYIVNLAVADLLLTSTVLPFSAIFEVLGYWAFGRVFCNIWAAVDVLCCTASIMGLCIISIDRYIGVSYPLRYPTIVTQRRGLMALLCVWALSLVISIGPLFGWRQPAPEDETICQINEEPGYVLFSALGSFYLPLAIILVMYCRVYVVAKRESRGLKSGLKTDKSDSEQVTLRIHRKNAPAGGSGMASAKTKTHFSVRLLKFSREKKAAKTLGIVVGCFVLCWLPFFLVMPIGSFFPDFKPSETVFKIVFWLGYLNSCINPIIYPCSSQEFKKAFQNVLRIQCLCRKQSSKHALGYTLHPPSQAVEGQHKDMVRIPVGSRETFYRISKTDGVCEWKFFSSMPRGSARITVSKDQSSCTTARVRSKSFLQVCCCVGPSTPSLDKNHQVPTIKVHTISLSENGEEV

[4] = molecular target: T2, human α1D‐adrenoceptor (full length); test: Intracellular free calcium mobilization, CHO‐α1D cells; format: cell-based; conditions: for Intracellular calcium release % ionomycin: maximal response as % of 10 µM ionomycin
[5] = tested on: parental CHO cell line without any transfected receptors; test: ERK1/2‐phosphorylation, parent CHO cells without transfected receptors; format: cell-based, Chinese hamster
human α1A‐adrenoceptor [6] = molecular target: T3, human α1A‐adrenoceptor; test: Intracellular free calcium mobilization, CHO‐α1A cells; format: cell-based
human α1A‐adrenoceptor [7] = molecular target: T3, human α1A‐adrenoceptor; test: ERK1/2‐phosphorylation (Surefire Alphascreen), CHO‐α1A cells; format: cell-based
[8] = tested on: parental CHO cell line without any transfected receptors; test: Intracellular calcium mobilization, parent CHO cells without transfected receptors; format: cell-based, Chinese hamster; conditions: Cricetulus griseus, read-out: Intracellular calcium release % ionomycin
human α1B‐adrenoceptor [9] = molecular target: T1, human α1B‐adrenoceptor; test: Intracellular free calcium mobilization, CHO‐α1B cells; format: cell-based
[10] = tested on: parental CHO cell line without any transfected receptors; test: Forskolin‐stimulated cAMP accumulation, parent CHO cells without transfected receptors; format: cell-based, Chinese hamster; conditions: for cAMP accumulation (in presence of forskolin) % forskolin-stim cAMP at 100μM: CHO cells without transfected receptors, response at 100μM only, EC50 not obtainable, % of forskolin-stimulated cAMP
[11] = molecular target: T2, human α1D‐adrenoceptor (full length); test: ^3H‐prazosin whole‐cell radioligand binding, CHO‐α1D cells
human α1B‐adrenoceptor [12] = molecular target: T1, human α1B‐adrenoceptor; test: ^3H‐cAMP accumulation, CHO‐α1B cells; format: cell-based; conditions: CHO‐α1B cells; % forskolin maximum response
human α1A‐adrenoceptor [13] = molecular target: T3, human α1A‐adrenoceptor; test: ^3H‐prazosin whole‐cell radioligand binding, CHO‐α1A cells
human α1B‐adrenoceptor [14] = molecular target: T1, human α1B‐adrenoceptor; test: ^3H‐prazosin whole‐cell radioligand binding, CHO‐α1B cells
[15] = CHO‐α1D cells, maximal response as % of PDBu
[16] = CHO cells without transfected receptors, maximal response as % of PDBu (10μM) response, mean ± s.e.m.
[17] = CHO cells without transfected receptors, response at maximum concentration used (c2), as % of ionomycin (10μM) response, mean ± s.e.m.
[18] = 3H‐prazosin binding Log KD, CHO‐α1D cells, whole‐cell binding (from Table 1), log values given negative
[19] = CHO‐α1D cells, given as log KD (negative), mean ± SEM, 'early plateau' = specific binding not fully inhibited
[20] = CHO‐α1D cells, log values given negative

SMILES	ERK1/2‐phosphorylation % PDBu [2, 15]	cAMP accumulation % forskolin (human α1A‐adrenoceptor [3]) [%]	Intracellular calcium release % ionomycin ([4]; CHO‐α1D cells)	ERK1/2-phosphorylation % PDBu [5, 16]	Emax [8, 17] [%]	cAMP accumulation (in presence of forskolin) % forskolin-stim cAMP at 100μM [10] [%]	ERK1/2‐phosphorylation % PDBu (human α1B‐adrenoceptor [1]) [%]	ERK1/2‐phosphorylation % PDBu at 100 µM [2]	Kd [11, 18] [nM]	Kd [11, 19] [nM]	cAMP accumulation % forskolin (human α1B‐adrenoceptor [12])	ERK1/2‐phosphorylation % PDBu (human α1A‐adrenoceptor [7]) [%]	Intracellular calcium release % Ionomycin at 100 µM [4] [%]	Affinity selectivity ratio α1B vs α1D [11] [fold]	Affinity selectivity ratio α1A vs α1B (human α1A‐adrenoceptor [13]) [fold]	Kd (human α1A‐adrenoceptor [13]) [nM]	ERK1/2-phosphorylation Log EC50 [5]	Intracellular calcium release % ionomycin (human α1A‐adrenoceptor [6]) [%]	further results
O=C1CC2(CCCC2)CC(=O)N1CCCCN1CCN(c2ncccn2)CC1 [Buspirone]	11.3 ± 2.5%	3.3 ± 0.06	9.0 ± 1.5%	No response	3.1 ± 2.3	113.6 ± 5.2	–	–	–	–	–	–	–	–	–	–	–	–	ERK1/2‐phosphorylation % PDBu (human α1B‐adrenoceptor [1]; CHO‐α1B cells, maximal response as % PDBu response, for bi‐phasic responses the initial stimulatory part): 47.2 ± 8.6%; Intracellular calcium release % ionomycin (human α1A‐adrenoceptor [6]; CHO‐α1A cells, maximal response as % of 10 µM ionomycin): 46.7 ± 3.0%; ERK1/2‐phosphorylation % PDBu (human α1A‐adrenoceptor [7]; CHO‐α1A cells, % of 10 µM PDBu, ^a bi‐phasic: initial stimulatory part): 47.3 ± 10.6%; Intracellular calcium release % ionomycin (human α1B‐adrenoceptor [9]; CHO‐α1B cells, maximal response as % of 10 µM ionomycin response): 47.8 ± 3.2%
Cc1cccc(Cc2c[nH]cn2)c1C [Detomidine]	–	17.3 ± 1.9	–	–	4.3 ± 1.7	83.2 ± 4.9	31.5 ± 5.4	12.3 ± 2.4%	977	977	2.8 ± 0.6%	84.2 ± 3.8	–	–	–	–	–	–	Emax at 100 µM ([5]; Cricetulus griseus, CHO, read-out: ERK1/2-phosphorylation % PDBu at 100μM): 6.1 ± 4%
Cc1cccc(C)c1N=C1NCCCS1 [Xylazine]	–	–	–	–	–	–	26.4 ± 5.8	–	–	–	–	78.6 ± 5.8	3.8 ± 0.8	21.9	18.2	33100	No response	45.1 ± 2.2	EC50 (human α1B‐adrenoceptor [1]): 6760 nM; ERK1/2‐phosphorylation % PDBu [2]: No response; ERK1/2‐phosphorylation Log EC50 [2]: No response; Affinity selectivity ratio α1A vs α1D [11]: 1.2 fold; Kd [11]: 27500 nM; Kd (human α1B‐adrenoceptor [14]): 603000 nM; ERK1/2-phosphorylation % PDBu [5]: No response; EC50 (human α1A‐adrenoceptor [6]): 1200 nM; Log efficacy ratio KD /EC50 (human α1A‐adrenoceptor [6]): 1.44; EC50 (human α1A‐adrenoceptor [7]): 2040 nM; Emax ([8]; CHO): 2.3 ± 0.3%; EC50 (human α1B‐adrenoceptor [9]): 4680 nM; Intracellular calcium release % ionomycin (human α1B‐adrenoceptor [9]): 30.4 ± 3.9%; Log efficacy ratio KD /EC50 (human α1B‐adrenoceptor [9]): 2.11
CC(CCc1ccccc1)NCC(O)c1ccc(O)c(C(N)=O)c1 (centres unmarked) [Labetolol]	–	4.5 ± 0.6	–	–	10.3 ± 3.1	–	22.9 ± 6.3	36.5 ± 5.2 ^a %	–	–	No response	71.3 ± 5.2	8.1 ± 1.6	–	–	–	–	36.9 ± 3.7	EC50 ([5]; Cricetulus griseus, CHO, read-out: ERK1/2-phosphorylation Log EC50 (converted)): 2400 nM; Emax ([5]; Cricetulus griseus, CHO cells without transfected receptors, maximal response as % of PDBu (10μM) response, mean ± s.e.m., read-out: ERK1/2-phosphorylation % PDBu): 25.9 ± 3.4%; ERK1/2‐phosphorylation response in parent CHO cells ([5]; untransfected cells): stimulated ERK1/2‐phosphorylation responses; Intracellular calcium release % Ionomycin at 100 µM (human α1B‐adrenoceptor [9]): 2.5 ± 1.2%; cAMP accumulation (in presence of forskolin) Log EC50 [10]: No response
OCc1cc(C(O)CNCCCCCCOCCCCc2ccccc2)ccc1O (centres unmarked) [Salmeterol]	No response	–	No response	No response	3.2 ± 1.4	–	–	–	1700	1700	–	–	–	4.4	9.5	776	No response	–	ERK1/2‐phosphorylation Log EC50 [2, 20]: No response; Intracellular calcium release Log EC50 [4, 20]: No response; Kd (human α1B‐adrenoceptor [14]; CHO‐α1B cells, given as log KD (negative), mean ± SEM): 7410 nM; Kd (human α1B‐adrenoceptor [14]; Log KD, ^3H‐prazosin binding, CHO‐α1B cells, whole‐cell binding (from Table 1), given as log KD (negative numbers)): 7410 nM; Intracellular calcium release % ionomycin at 10 µM (human α1A‐adrenoceptor [6]): 28.2 ± 2.7%; Intracellular calcium release % ionomycin at 10 µM (human α1B‐adrenoceptor [9]; CHO‐α1B cells, response at 10 µM ligand (no EC50 given), % of ionomycin response): 15.2 ± 4.0%
